One block for each molecule: values may come before it.
Experiments:
[1] = test system: MeT-5A (human mesothelial cell line); assay: Cell toxicity evaluation (WST assay) of HA-ABA-PMX in MeT-5A; type: cell-based; settings: 48 hours; for Cell growth inhibition effect (cell viability): PMX 10^−4 to 10 μg/mL
Procedure: (§1) As with the HA-ABA, the cell toxicity of HA-ABA-PMX in MeT-5A (human mesothelial cell line) and AB22 cells (mouse mesothelioma cells) was evaluated by WST assay.
(§2) Specifically, MeT-5A (human mesothelial cell line) and AB22 cells (mouse mesothelioma cells) were seeded on 24-well plates and incubated for 24 hours. The medium was then replaced with medium having HA-ABA-PMX dissolved at different PMX concentrations (10^−4 μg/mL, 10^−3 μg/mL, 10^−2 μg/mL, 10^−1 μg/mL, 1 μh/mL, 10 μg/mL). Cell viability (%) 48 hours after sample addition was then measured by WST-8 assay (Cell Counting Kit-8, Dojindo).

[2] = test system: AB22 cells (mouse mesothelioma cells); assay: Cell toxicity evaluation (WST assay) of HA-ABA-PMX in AB22; type: cell-based; settings: 48 hours; for Cell growth inhibition effect (cell viability): PMX 10^−4 to 10 μg/mL
Procedure: as §1, §2

[3] = Release test of PMX from HA-ABA-PMX (dialysis tube, PBS); type: physicochemical
Procedure: The release behavior or PMX from HA-ABA-PMX at different pH values was investigated using a dialysis tube (MWCO: 1 kDa). […] The external solution (sustained release solution) was collected at specific time points, and new PBS was substituted for the entire amount. The drug concentration in the collected external solution (sustained release solution) was measured by UV-vis, and the release rate of the drug PMX was calculated.

[4] = test system: AB22 cells (mouse mesothelioma cells); assay: Cell toxicity evaluation (WST assay) of HA-ABA-DOX in AB22; type: cell-based; settings: 48 hours; for Cell growth inhibition effect (cell viability): DOX 10^−3 to 100 μg/mL
Procedure: As with the HA-ABA, the cell toxicity of HA-ABA-DOX in AB22 cells (mouse mesothelioma cells) was evaluated by WST assay.
Specifically, AB22 cells (mouse mesothelioma cells) were seeded on 24-well plates and incubated for 24 hours. The medium was then replaced with media having […] dissolved at different DOX concentrations (10^−3 μg/mL, 10^−2 μg/mL, 10^−1 μg/mL, 1 μg/mL, 10 μg/mL, 100 μg/mL). Cell viability (%) 48 hours after sample addition was then measured by WST-8 assay (Cell Counting Kit-8 Dojindo).
For purposes of comparison as a control test, cell toxicity was also evaluated using free DOX in place of HA-ABA-DOX.

[5] = Release test of DOX from HA-ABA-DOX (dialysis tube, PBS); type: physicochemical; settings: PBS 37° C., pH 5.0, 6.0, 7.4
Procedure: Release of DOX from HA-ABA-DOX under different pH conditions was investigated in the same manner as in Example II-2. Specifically, 1 mL of an aqueous solution of the HA-ABA-DOX (1 mg/mL) obtained in Example II-3 above was placed in a dialysis tube (MWCO: 1 kDa), and shaken at 50 rpm while being incubated with 79 mL of PBS (37° C., pH=5.0, 6.0 7.4). The external solution (sustained release solution) was collected at specific time points, and new PBS was substituted for the entire amount. The drug concentration in the collected external solution (sustained release solution) was measured by UV-vis, and the release rate of the drug DOX was calculated.

[6] = Release test of Van from AL-ABA-Van solution (dialysis membrane, PBS); type: physicochemical
Procedure: The release behavior or Van from an AL-ABA-Van solution at different pH values was investigated using a dialysis membrane (pore size: 50 kDa). Specifically, 1 mL of an AL-ABA-Van solution of the AL-ABA-Van obtained in Example I-7 above dissolved in […] of pure water was injected into a dialysis membrane cut to 9 cm, and both ends of the dialysis membrane were tied with kite thread. This was placed in an 80 mL security, container, 79 mL of PBS solution was added, and the mixture was stirred at the maximum rotational speed with a 1 cm stirrer tip in a 37° C. thermostatic tank. 1.0 mL samples were taken from the solution in the security container at specific time points (1, 2, 3, 4, 6, 8, 12, 24, and 48 hours). The sample solutions were subjected to UV-vis spectrum measurement, the drug concentration in the solutions was assayed based on absorbance, and the release rate of the drug Van (vancomycin release %) was calculated. The above measurements were conducted with pH 5.0, pH 6.0 and pH 7.4 PBS solutions (n=4 at each pH).
For purposes of comparison as control tests, the same release testing was also performed with the AL-ABA-Van solution replaced by a mixed solution (AL+Van) of sodium alginate and vancomycin obtained by dissolving 3 mg/mL of sodium alginate (AL) (IL-6G, viscosity 50 to 80 mPa·s (1%), manufactured by Kimica Co., Ltd.) and 8.6 mg/mL of vancomycin (Van) in pure water, and by a solution (Van only) obtained by dissolving 8.6 mg/mL of vancomycin (Van) in pure water.

Molecule: benzaldehyde-modified hyaluronic acid-pemetrexed conjugate [HA-ABA-PMX]
Concentration reducing cell viability compared with free PMX and HA-ADH-PMX [1]: reduced cell viability at lower concentrations
Cell growth inhibition effect (cell viability) [1]: dose-dependent cell growth inhibition effects
Concentration reducing cell viability compared with free PMX and HA-ADH-PMX [2]: reduced cell viability at lower concentrations
Cell growth inhibition effect (cell viability) [2]: dose-dependent cell growth inhibition effects
PMX released (cumulative drug release) ([3]; PBS pH 5.0, 37° C., after 24 hours): more than 80%
PMX not released ([3]; PBS pH 7.4, 37° C., after 24 hours): 40%
pH dependence of PMX release ([3]; pH 5.0, 6.0, 7.4): released more rapidly at lower pH values

Molecule: benzaldehyde-modified hyaluronic acid-doxorubicin conjugate [HA-ABA-DOX]
Concentration depressing cell viability compared with free DOX [4]: depressed cell viability at lower concentrations
Cell growth inhibition effect (cell viability) [4]: dose-dependent cell growth inhibition effects
pH dependence of DOX release [5]: selective drug release at low pH

PMX released ([3]; control solutions, within 2 hours): almost all
Molecule: Nc1nc2[nH]cc(CCc3ccc(C(=O)N[C@@H](CCC(=O)O)C(=O)O)cc3)c2c(=O)[nH]1 [Free PMX, Pemetrexed, reference compound]
Cell growth inhibition effect (cell viability) [1]: dose-dependent cell growth inhibition effects
Cell growth inhibition effect (cell viability) [2]: dose-dependent cell growth inhibition effects

Molecule: COc1cccc2c1C(=O)c1c(O)c3c(c(O)c1C2=O)C[C@@](O)(C(=O)CO)C[C@@H]3O[C@H]1C[C@H](N)[C@H](O)[C@H](C)O1 [free DOX, Doxorubicin, reference compound]
Cell growth inhibition effect (cell viability) [4]: dose-dependent cell growth inhibition effects

Molecule: benzaldehyde-modified alginic acid-vancomycin conjugate [AL-ABA-Van]
Van released (cumulative release rate) ([6]; PBS pH 5.0, 37° C., after 10 hours): over 80%
Van not released ([6]; PBS pH 7.4, 37° C., after 10 hours): ~50%
pH dependence of Van release behavior ([6]; pH 5.0, 6.0, 7.4): released more rapidly the lower the pH

Molecule: CN[C@H](CC(C)C)C(=O)N[C@H]1C(=O)N[C@@H](CC(N)=O)C(=O)N[C@H]2C(=O)N[C@H]3C(=O)N[C@H](C(=O)N[C@H](C(=O)O)c4cc(O)cc(O)c4-c4cc3ccc4O)[C@H](O)c3ccc(c(Cl)c3)Oc3cc2cc(c3O[C@@H]2O[C@H](CO)[C@@H](O)[C@H](O)[C@H]2O[C@H]2C[C@](C)(N)[C@H](O)[C@H](C)O2)Oc2ccc(cc2Cl)[C@H]1O [Van, Vancomycin, reference compound]
Van released ([6]; control solutions, first 10 hours, pH 5.0, 6.0, 7.4): almost all
pH dependence of Van release behavior ([6]; pH 5.0, 6.0, 7.4): no difference in release behavior depending on pH

From patent US20230285577A1, “POLYSACCHARIDE DERIVATIVE, POLYSACCHARIDE DERIVATIVE-DRUG CONJUGATE, AND METHOD FOR PRODUCING SAME” (priority 2020, published 2023)
